In article PMC3914206:

Legend:
Assay type in all cases: binding
panel of 442 kinases [1] = molecular target: T1, panel of 442 kinases (Homo sapiens, UniProt Q9BVS4); details: Compound Concentration 10 µM
T1 construct: purchased KINOMEscan
Source text: (§1) We assessed the selectivity of members of this scaffold using the KINOMEscan methodology across a near comprehensive panel of 442 kinases [[18,27]].

panel of 442 kinases [2] = molecular target: T2, panel of 442 kinases (Homo sapiens, UniProt P27448); details: Compound Concentration 10 µM
T2 construct: purchased KINOMEscan
Source text: as §1

panel of 442 kinases [3] = molecular target: T3, panel of 442 kinases (Homo sapiens, UniProt Q8N568); details: Compound Concentration 10 µM
T3 construct: purchased KINOMEscan
Source text: as §1

panel of 442 kinases [4] = molecular target: T4, panel of 442 kinases (Homo sapiens, UniProt P04629); details: kinase TRKA; compound concentration 10 µM
T4 construct: purchased KINOMEscan
Source text: as §1

T3 sequence (Q8N568 whole entry): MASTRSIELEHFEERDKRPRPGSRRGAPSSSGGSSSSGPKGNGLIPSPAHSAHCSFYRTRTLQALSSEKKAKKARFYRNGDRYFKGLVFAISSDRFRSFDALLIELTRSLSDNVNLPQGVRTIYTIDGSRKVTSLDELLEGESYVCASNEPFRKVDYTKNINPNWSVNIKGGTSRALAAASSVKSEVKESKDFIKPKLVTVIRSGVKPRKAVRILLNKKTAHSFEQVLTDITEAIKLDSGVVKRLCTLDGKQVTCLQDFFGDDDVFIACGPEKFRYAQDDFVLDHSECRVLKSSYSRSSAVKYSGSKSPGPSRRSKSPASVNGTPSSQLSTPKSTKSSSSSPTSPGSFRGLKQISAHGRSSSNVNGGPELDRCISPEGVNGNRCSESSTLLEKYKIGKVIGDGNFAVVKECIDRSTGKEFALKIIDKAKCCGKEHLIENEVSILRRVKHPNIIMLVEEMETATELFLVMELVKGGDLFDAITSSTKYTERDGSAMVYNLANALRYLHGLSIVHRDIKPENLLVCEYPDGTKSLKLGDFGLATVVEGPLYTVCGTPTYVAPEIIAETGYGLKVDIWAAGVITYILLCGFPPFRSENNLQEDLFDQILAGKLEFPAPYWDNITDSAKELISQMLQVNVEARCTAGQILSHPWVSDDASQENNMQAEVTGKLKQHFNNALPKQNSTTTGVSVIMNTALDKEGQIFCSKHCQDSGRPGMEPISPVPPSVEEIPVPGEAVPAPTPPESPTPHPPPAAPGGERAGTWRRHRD
T4 sequence (P04629 33-796): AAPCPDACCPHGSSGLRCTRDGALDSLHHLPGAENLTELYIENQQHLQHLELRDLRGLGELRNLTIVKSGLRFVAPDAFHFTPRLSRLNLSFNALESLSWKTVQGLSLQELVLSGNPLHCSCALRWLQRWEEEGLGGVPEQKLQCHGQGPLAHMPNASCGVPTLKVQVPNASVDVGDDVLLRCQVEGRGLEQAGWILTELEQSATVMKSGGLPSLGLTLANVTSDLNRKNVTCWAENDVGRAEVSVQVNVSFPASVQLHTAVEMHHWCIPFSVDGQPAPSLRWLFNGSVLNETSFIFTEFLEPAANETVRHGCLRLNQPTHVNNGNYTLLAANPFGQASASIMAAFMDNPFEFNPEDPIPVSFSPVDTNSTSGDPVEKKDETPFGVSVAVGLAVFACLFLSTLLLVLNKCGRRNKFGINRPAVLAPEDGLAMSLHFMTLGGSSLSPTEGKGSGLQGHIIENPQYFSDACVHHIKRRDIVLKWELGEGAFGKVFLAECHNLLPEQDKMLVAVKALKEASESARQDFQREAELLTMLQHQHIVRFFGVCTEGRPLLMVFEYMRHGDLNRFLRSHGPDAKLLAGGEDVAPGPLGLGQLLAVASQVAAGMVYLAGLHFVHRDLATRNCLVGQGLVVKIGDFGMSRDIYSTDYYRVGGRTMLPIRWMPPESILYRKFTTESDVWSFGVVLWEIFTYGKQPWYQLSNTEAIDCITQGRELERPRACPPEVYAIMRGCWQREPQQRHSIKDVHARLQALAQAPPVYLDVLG
T1 sequence (Q9BVS4 whole entry): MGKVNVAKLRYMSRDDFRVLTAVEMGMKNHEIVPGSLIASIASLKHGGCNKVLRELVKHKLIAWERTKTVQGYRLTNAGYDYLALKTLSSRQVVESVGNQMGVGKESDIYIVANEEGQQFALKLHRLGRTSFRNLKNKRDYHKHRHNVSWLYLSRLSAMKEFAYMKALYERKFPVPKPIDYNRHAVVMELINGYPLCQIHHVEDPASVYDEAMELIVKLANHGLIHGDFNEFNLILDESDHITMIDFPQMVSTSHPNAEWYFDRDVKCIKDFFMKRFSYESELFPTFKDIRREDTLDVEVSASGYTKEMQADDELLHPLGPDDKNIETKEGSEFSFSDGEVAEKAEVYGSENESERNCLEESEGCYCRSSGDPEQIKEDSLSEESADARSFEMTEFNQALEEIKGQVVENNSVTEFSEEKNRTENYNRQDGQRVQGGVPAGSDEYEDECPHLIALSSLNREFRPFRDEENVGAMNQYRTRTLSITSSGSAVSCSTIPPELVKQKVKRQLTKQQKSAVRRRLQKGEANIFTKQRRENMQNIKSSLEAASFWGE
T2 sequence (P27448 whole entry): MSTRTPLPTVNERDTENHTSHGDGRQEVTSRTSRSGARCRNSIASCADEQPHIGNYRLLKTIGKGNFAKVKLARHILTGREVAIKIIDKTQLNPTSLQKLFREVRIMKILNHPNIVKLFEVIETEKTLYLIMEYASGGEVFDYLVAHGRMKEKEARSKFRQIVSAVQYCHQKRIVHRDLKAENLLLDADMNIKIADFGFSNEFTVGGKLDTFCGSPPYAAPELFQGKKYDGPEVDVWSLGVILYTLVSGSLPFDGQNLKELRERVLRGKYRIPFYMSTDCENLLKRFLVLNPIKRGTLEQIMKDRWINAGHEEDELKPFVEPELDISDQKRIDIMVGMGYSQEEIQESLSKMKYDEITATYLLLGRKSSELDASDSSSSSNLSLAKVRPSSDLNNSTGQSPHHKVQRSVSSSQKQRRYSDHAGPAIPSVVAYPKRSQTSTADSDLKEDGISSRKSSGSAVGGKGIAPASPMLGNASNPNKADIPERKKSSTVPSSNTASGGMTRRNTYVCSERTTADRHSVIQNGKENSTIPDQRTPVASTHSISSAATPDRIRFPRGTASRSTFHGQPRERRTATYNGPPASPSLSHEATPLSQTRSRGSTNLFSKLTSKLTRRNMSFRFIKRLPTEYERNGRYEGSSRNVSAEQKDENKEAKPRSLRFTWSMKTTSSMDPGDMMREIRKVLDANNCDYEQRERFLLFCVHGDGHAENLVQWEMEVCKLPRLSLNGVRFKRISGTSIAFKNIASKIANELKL

| Structure (SMILES) | KINOMEscan: RIOK2 (panel of 442 kinases [1]) | KINOMEscan: MARK3 (panel of 442 kinases [2]) | KINOMEscan: DCAMKL2 (panel of 442 kinases [3]) | % Ctrl, TRKA (panel of 442 kinases [4]) [% Ctrl] |
| --- | --- | --- | --- | --- |
| COc1cc(C(=O)N2CCC(N3CCN(C)CC3)CC2)ccc1Nc1ncc2c(n1)N(C)c1ccccc1C(=O)N2C [15 (LRRK2-IN-1)] | 100 | 98 | 0.45 | 69 |
| COc1cc(C(=O)N2CCC(N3CCN(C)CC3)CC2)ccc1Nc1ncc2c(n1)N1CCc3cccc(c31)C(=O)N2C [Compound 24] | 81 | – | 1.2 | 93 |
| COc1cc(C(=O)N2CCC(N3CCN(C)CC3)CC2)ccc1Nc1ncc2c(n1)N(C1CCCC1)c1ccccc1C(=O)N2C [Compound 25, 11-cyclopentyl-2-((2-methoxy-4-(4-(4-methylpiperazin-1-yl)piperidine-1-carbonyl)phenyl)amino)-5-methyl-5H-benzo[e]pyrimido[5,4-b][1,4]diazepin-6(11H)-one] | 93 | 100 | 1.1 | 78 |
| CCOc1cc(C(=O)N2CCC(N3CCN(C)CC3)CC2)ccc1Nc1ncc2c(n1)N(C1CCCC1)c1ccccc1C(=O)N2C [Compound 26] | 81 | 100 | 3.6 | 100 |
